# Results as given in US8962003B2, “Insect behaviour modifying compounds” (The New Zealand Institute for Plant and Food Research …, priority 2003, dated 2015).
# Legend:
# [1] = test system: Frankliniella occidentalis; details: literature; anisaldehyde with blue sticky or yellow water traps; WO 03/055309 Y-tube; cited from earlier work
# [2] = test system: Frankliniella occidentalis; experiment: Greenhouse trials with water traps or yellow sticky traps; format: in vivo; details: 24 h, capsicum greenhouse, t-value in brackets in same cell
# Excerpt: Greenhouse trials were undertaken using water traps similar to those used in the field trials (Example 2), or yellow sticky traps (Veg-Gro Supplies Ltd, Auckland) to examine the response of thrips to volatile compounds. The greenhouse, located in Auckland, is ≈88×200 m, constructed of glass, and is used to grow capsicum (Capsicum annuum var. Special, Fiesta, Boogie and Stirit). Water traps were placed 20 to 24 m apart within a row and 24 m apart between rows. There were 6 baited water traps for each compound tested and 6 water-only traps randomly positioned in a 6×2 grid in the greenhouse. Traps were positioned just above the crop canopy. Water traps (2 L containers, 16×16×8.5 cm) were assembled as described in Example 2 and left in the greenhouse for 24 h, after which time the containers were sealed for transport to a laboratory. Insects from each water trap were transferred to 5 ml glass tubes containing 75% ethanol within 24 h of collecting them from the greenhouse. Catches from each treatment were analysed under a stereomicroscope (100×) and the proportion of Frankliniella occidentalis was determined.
# Yellow sticky traps (24.4×20 cm) were treated with a compound or water using a 30 ml spray mist dripulator (Arthur Holmes, Wellington) held 10 cm away from the sticky trap. Four sprays were applied to each side, coating the sticky trap in approximately 1 ml of water or compound. Sticky traps sprayed with the same treatment were separated using black metal foldback clips (19 mm, Celco), suspended within a cardboard box (29.5×22.3×30.2 cm), which was in turn sealed within a plastic bag for transport to the greenhouse. Traps were suspended in the greenhouse just above the crop canopy within 3 h after spraying, using the same layout as for the water traps (20 to 24 m apart within a row, 24 m between rows, in a 6×2 grid). After 24 h the traps were collected by wrapping each trap in plastic wrap for transport to the laboratory. The total number of thrips on the traps were counted using 10× magnification. Thrips were removed from the sticky traps using De-Solv-it® and Johnsons baby oil®. A subsample from each treatment was further analysed under a stereomicroscope (100×) and the proportion of Frankliniella occidentalis was determined.
# [3] = test system: Frankliniella occidentalis; experiment: Y-tube olfactometer bioassay; format: in vivo; details: female Frankliniella occidentalis
# Protocol: The thrips behaviour-modifying activity of a compound may be evaluated in a glass Y-tube olfactometer following the method described by de Kogel et al. (de Kogel, W. J., Koschier, E. H. and Visser, J. H. Proc. Exper. & Appl. Entomol., N. E. V. Amsterdam, (1999) 10, 131-135.) and Koschier et al. (Koschier, E. H., De Kogel, W. J. and Visser, J. H. (2000) Jounrnal of Chemical Ecology, 26, 2643-2655).
# The olfactory behaviour of thrips toward volatile compounds was evaluated in a glass Y-tube olfactometer following the method described by de Kogel et al. (de Kogel, W. J., Koschier, E. H. and Visser, J. H. Proc. Exper. & Appl. Entomol., N. E. V. Amsterdam, (1999) 10, 131-135.) and Koschler et al. (Koschier, E. H., De Kogel, W. J. and Visser, J. H. (2000) Journal of Chemical Ecology, 26, 2643-2655.). The Y-tube has two branching arms at an angle of 45° leading into a single tube, all 60 mm long, with an internal diameter of 5 mm. The arms of the Y-tube were connected to glass Wheaton Micro Kit® adapters that were in turn attached to 4 ml glass vials each containing a 1 cm^2 piece of filter paper (Whatman No. 1). The Y-tube and Wheaton apparatus were placed in a grey-box (to prevent external stimuli influencing thrips' behaviour), located in a darkened, air-conditioned room (22±3° C.). The Y-tube was placed at an inclining position of 25° between the Y-tube and horizontal plane and illuminated from above by a halogen lamp (780 lux). One microliter of the volatile compounds, either undiluted or diluted in hexane (95%, Pronalys AR), was applied to filter paper in one vial, while 1 μl of hexane was applied to filter paper held in the second vial. Air was drawn through activated charcoal before entering the Wheaton apparatus and Y-tube using a suction pump (AR Harris Co. Ltd, Christchurch) producing an airflow of 5 cm/s through each arm and 10 cm/s at the base of the Y-tube. Air was drawn through for 30 min before introducing the first thrips. Connections between the activated charcoal, Wheaton apparatus, Y-tube and suction pump consisted of silicone tubing.
# An individual female Frankliniella occidentalis thrips of unknown age, that had been starved overnight, was released into the Y-tube using a small aspirator. The aspirator was made by placing a 1 ml pipette tip over the end of silicone tubing (5 mm diameter) the end of which was covered with fine mesh; the pipette tip was cut so it projected 5 mm beyond the end of the silicone tubing. A thrips was sucked up into the pipette tip, which was then placed at the base of the Y-tube. Most thrips walked up into the Y-tube within a few seconds, at which time the silicone air suction tubing was reconnected to the glass Y. The choice between clean or odour laden airflow was recorded when the thrips reached the far end of one arm and only those thrips that made the choice within 3 min were recorded. After every 5 thrips the Y-tube and Wheaton apparatus were rotated […] to avoid position effects. After 25 choices were recorded, the Y-tube and Wheaton apparatus were thoroughly cleaned with acetone (99.5%, BDH) and allowed to dry before repeating the experiment. Each compound and dilution was replicated 3 times.
# Thrips tabaci = details: cited from earlier work
# Thrips obscuratus = details: Penman et al. 1982; cited from earlier work
# Thrips flavus = details: cited from earlier work
# Thrips coloratus = details: field trials; cited from earlier work
# Thrips hawaiiensis = details: field trials; cited from earlier work
SMILES,Attractancy to Frankliniella occidentalis (literature) [1],"Average ratio of thrips caught relative to water treated traps ([2]; Water trap, around 66% of thrips caught were Frankliniella occidentalis)","Average ratio of thrips caught relative to water treated traps ([2]; Yellow sticky trap, about 1 ml sprayed, >95% of thrips caught were Frankliniella occidentalis)",MAC (%) = Minimum Active Concentration to elicit a response from thrips (P < 0.05) ([3]; 1 µl undiluted or diluted in hexane) [%],% Response: percentage of thrips to walk up odour-laden arm ([3]; same cell prints a '(t value)' in brackets),Attractancy to Thrips tabaci (literature) (Thrips tabaci),Attractancy to Thrips obscuratus (literature) (Thrips obscuratus),Attractancy to Thrips flavus (literature) (Thrips flavus),Attractancy to Thrips coloratus (literature) (Thrips coloratus),Attractancy to Thrips hawaiiensis (literature) (Thrips hawaiiensis)
"CCOC(=O)c1cccnc1 [Ethyl nicotinate, reference compound]",less attractive,1 (0.1),1.1 (0.4),0.01,60.0 (0.043) %,varied in its attractiveness,potent attractant,,,
CCOC(=O)c1ccccc1N [ethyl anthranilate],,,,,,,,attractant,attractant,attractant
COC(=O)c1ccccc1N [methyl anthranilate],,,,,,not for Thrips tabaci,,,attractant,attractant
